Literature values in patent EP0916677A1, “METHOD FOR SEARCHING FOR PEPTIDES AND PROCESS FOR PRODUCING COMPOUNDS” (YAMANOUCHI PHARMACEUTICAL CO., LTD., priority 1996, dated 1998).

Molecular target: T1, trypsin (Bos taurus, UniProt P00760)
T1 sequence (P00760 24-246): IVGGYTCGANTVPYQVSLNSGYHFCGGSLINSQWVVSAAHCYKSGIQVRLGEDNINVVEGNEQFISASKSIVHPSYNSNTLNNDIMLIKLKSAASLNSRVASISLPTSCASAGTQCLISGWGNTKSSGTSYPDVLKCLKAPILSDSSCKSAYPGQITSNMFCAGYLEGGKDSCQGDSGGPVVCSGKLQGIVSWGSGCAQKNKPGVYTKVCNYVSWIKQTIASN
Settings: known from Eichler et al., Biochemistry, 1993, 32, 11035

Question: Which trypsin inhibitory activity does the source give for Ac-TTKIFT-NH2 [TTKIFT, Ac-TTKIFT-NH2] here?
Answer: high
